In this experiment the target is GLP1R (Homo sapiens, UniProt P43220). Briefly: GLP1R cAMP HTRF assay, HEK293/GLP-1R/CRE/Luc (HEK293T cells). The note with it: read-out: EC50. Format: cell-based. The method, then:
GLP-1R-mediated agonist activity was determined with a cell-based functional assay utilizing an HTRF (Homogeneous Time-Resolved Fluorescence) cAMP detection kit (cAMP Dynamic 2 Assay Kit; CisBio cat #62AM4PEC) that measures cAMP levels in the cell. The method is a competitive immunoassay between native cAMP produced by the cells and exogenous cAMP labeled with the dye d2. The tracer binding is visualized by a mAb anti-cAMP labeled with Cryptate. The specific signal (i.e., energy transfer) is inversely proportional to the concentration of cAMP in either standard or experimental sample.
A cell line stably expressing the receptor was isolated.
Varying concentrations of each compound to be tested (in DMSO) were diluted in DMSO to obtain 200× compound working solution first and then 50 nl compounds were added to a white 384-well assay plate (Greiner 784075) with ECHO. The final DMSO concentration was 0.5%. The compound concentration range may be adjusted at any time.
Cells were removed from cryopreservation, re-suspended in 5 mL of Dulbecco's Phosphate Buffered Saline (DPBS-Sigma Cat # D8537) and centrifuged at 900 g for 5 min at 22° C. The cell pellet was then re-suspended in 1 mL of assay buffer [DPBS with 500 μM IBMX (Sigma #15879) and 0.1% BSA (Sigma # A1933). IBMX and BSA were freshly added on the day of assay]. A 10 μL sample of the cell suspension was counted on an Invitrogen Countess II to determine cell viability and cell count per mL. The remaining cell suspension was then adjusted with assay buffer to deliver 1000 viable cells per well using a Matrix Combi Multidrop reagent dispenser. 10 μL cell suspensions were added to each well of the assay plate which already contains compound. The plate was sealed and incubated at 37° C. with 5% CO2 for 30 minutes.
Following the 30 minute incubation, 5 μL of labeled d2 cAMP and 5 μL of anti-cAMP antibody (both diluted 1:20 in cell lysis buffer; as described in the manufacturer's assay protocol) were added to each well of the assay plate. The plates w ere then incubated at room temperature and after 60 minutes, changes in the HTRF signal were read with an Envision multi-label plate reader using excitation of 330 nm and emissions of 615 and 665 nm. Raw data were converted to nM cAMP by interpolation from a cAMP standard curve (as described in the manufacturer's assay protocol) and the percent effect was determined relative to a saturating concentration of the full agonist GLP-17-37 (10 nM) included on each plate. EC50 determinations were made from agonist dose-response curves analyzed with a curve fitting program using a 4-parameter logistic dose response equation.
3) Anti-cAMP antibody-cryptate working solution preparation • c) The lyophilisate was reconstituted with appropriate amount of distilled water according to manufacturer's instruction to make working stock which can be aliquoted and frozen (−20° C.). • d) The working stock solution was diluted 1:20 in the conjugate and lysis buffer before use. Procedures Procedures for Cell Suspension Preparation • 1. Frozen cells were thawed very briefly in a 37° C. water bath under sterile conditions until just before ice completely melt (for about 1 minute) with a continuous agitation. Caution was taken because a longer incubation could result in cell death. • 2. DMSO was removed from the media by carefully transferring thawed cells to a sterile 15/50 mL tube, filling a tube with 10-50 mL of complete media pre-warmed to 37° C., and allowing the cells to sit 5 min before centrifuging at 900 rpm for 5 minutes for cell collection. • 3. The cells were resuspended with assay buffer. • 4. For stable GLP1-R assay, the optimized cell density is 1000 cells/well. Caution was taken because cell density optimization was crucial and needed to be optimized in different laboratories. The level of cAMP produced by the cells must fall within the linear range of the standard curve.
Chain of GLP1R (P43220 24-463): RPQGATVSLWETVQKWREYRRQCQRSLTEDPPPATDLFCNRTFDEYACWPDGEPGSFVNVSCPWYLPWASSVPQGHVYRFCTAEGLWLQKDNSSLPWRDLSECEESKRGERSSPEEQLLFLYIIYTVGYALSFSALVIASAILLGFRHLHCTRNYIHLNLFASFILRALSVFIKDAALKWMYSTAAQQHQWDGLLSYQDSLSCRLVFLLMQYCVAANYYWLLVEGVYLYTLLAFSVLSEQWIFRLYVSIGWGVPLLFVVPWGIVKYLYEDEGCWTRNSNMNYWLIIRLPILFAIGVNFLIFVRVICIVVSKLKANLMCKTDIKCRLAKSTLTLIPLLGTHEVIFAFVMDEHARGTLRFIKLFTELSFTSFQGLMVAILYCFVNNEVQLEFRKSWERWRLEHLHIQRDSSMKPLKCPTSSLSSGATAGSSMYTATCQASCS
Regarding `O=C(O)c1ccc2nc(CN3CCCN(c4cccc(OCc5ccc(Cl)cc5F)n4)C(=O)C3)n(C[C@@H]3CCO3)c2c1` [Compound 56, (S)-2-((4-(6-((4-chloro-2-fluorobenzyl)oxy)pyridin-2-yl)-3-oxo-1,4-diazepan-1-yl)methyl)-1-(oxetan-2-ylmethyl)-1H-benzo[d]imidazole-6-carboxylic acid], the concentration for a half-maximal effect (EC50) is greater than 1 µM. Next, `O=C(O)c1ccc2nc(CN3CCC(=O)N(c4cccc(OCc5ccc(Cl)cc5F)n4)CC3)n(C[C@@H]3CCO3)c2c1` [Compound 57]: no more than 1 µM.

For `O=C(O)c1ccc2nc(CN3CC=C(c4cc5nc[nH]c5c(OCc5ccc(Cl)cc5F)n4)CC3)n(C[C@@H]3CCO3)c2c1` [Compound 58, (S)-2-((4-(4-((4-chloro-2-fluorobenzyl)oxy)-3H-imidazo[4,5-c]pyridin-6-yl)-3,6-dihydropyridin-1(2H)-yl)methyl)-1-(oxetan-2-ylmethyl)-1H-benzo[d]imidazole-6-carboxylic acid], the concentration giving a half-maximal response (EC50) was greater than 1 µM. The result for `O=C(O)c1ccc2nc(CN3CC=C(c4ccc5c(n4)N(Cc4ccc(Cl)cc4F)CCCO5)CC3)n(C[C@@H]3CCO3)c2c1` [Compound 59, (S)-2-((4-(5-(4-chloro-2-fluorobenzyl)-2,3,4,5-tetrahydropyrido[3,2-b][1,4]oxazepin-7-yl)-3,6-dihydropyridin-1(2H)-yl)methyl)-1-(oxetan-2-ylmethyl)-1H-benzo[d]imidazole-6-carboxylic add] reads greater than 1 µM; that for `O=C(O)c1ccc2nc(CN3CC=C(c4cccc(OC5CCCc6cc(Cl)ccc65)n4)CC3)n(C[C@@H]3CCO3)c2c1` (stereo partly drawn) [Compound 60, 2-((6-((6-chloro-1,2,3,4-tetrahydronaphthalen-1-yl)oxy)-3′,6′-dihydro-[2,4′-bipyridin]-1′(2′H)-yl)methyl)-1-(((S)-oxetan-2-yl)methyl)-1H-benzo[d]imidazole-6-carboxylic acid], no more than 1 µM. With `O=C(O)c1ccc2nc(CN3CC=C(c4cccc(NC5CCOc6cc(Cl)ccc65)n4)CC3)n(C[C@@H]3CCO3)c2c1` (stereo partly drawn) [Compound 61, 2-((4-(6-(7-chlorochroman-4-ylamino)pyridin-2-yl)-5,6-dihydropyridin-1(2H)-yl)methyl)-1-((S)-oxetan-2-ylmethyl)-1H-benzo[d]imidazole-6-carboxylic acid], the 50% effective concentration (EC50) is no more than 1 µM. Next, `O=c1[nH]c(-c2ccc3nc(CN4CC=C(c5cccc(OCc6ccc(Cl)cc6F)n5)CC4)n(C[C@@H]4CCO4)c3c2)no1` [Compound 62, (S)-3-(2-((4-(6-(4-chloro-2-fluorobenzyloxy)pyridin-2-yl)-5,6-dihydropyridin-1(2H)-yl)methyl)-1-(oxetan-2-ylmethyl)-1H-benzo[d]imidazol-6-yl)-1,2,4-oxadiazol-5(4H)-one]: no more than 0.15 µM. For `O=C(O)c1ccc2nc(CN3CC=C(c4ccc(F)c(OCc5ccc(Cl)cc5F)c4F)CC3)n(C[C@@H]3CCO3)c2c1` [Compound 63, (S)-2-((4-(3-(4-chloro-2-fluorobenzyloxy)-2,4-difluorophenyl)-5,6-dihydropyridin-1(2H)-yl)methyl)-1-(oxetan-2-ylmethyl)-1H-benzo[d]imidazole-6-carboxylic acid], the EC50 is no more than 1 µM. The result for `Cc1ccc(C2=CCN(Cc3nc4ccc(C(=O)O)cc4n3C[C@@H]3CCO3)CC2)cc1OCc1ccc(Cl)cc1F` [Compound 64, (S)-2-((4-(3-((4-chloro-2-fluorobenzyl)oxy)-4-methylphenyl)-3,6-dihydropyridin-1(2H)-yl)methyl)-1-(oxetan-2-ylmethyl)-1H-benzo[d]imidazole-6-carboxylic acid] reads no more than 0.15 µM; that for `N#CC1(c2cccc(OCc3ccc(Cl)cc3F)n2)CCN(Cc2nc3ccc(C(=O)O)cc3n2C[C@@H]2CCO2)CC1` [Compound 66, (S)-2-((4-(6-((4-chloro-2-fluorobenzyl)oxy)pyridin-2-yl)-4-cyanopiperidin-1-yl)methyl)-1-(oxetan-2-ylmethyl)-1H-benzo[d]imidazole-6-carboxylic acid], greater than 1 µM.

A word on the EC50: it is the midpoint of the concentration-response curve.

(Values after US10844049B2, “GLP-1R agonists and uses thereof” (QILU REGOR THERAPEUTICS INC., priority 2018, dated 2020).)
